Patent US4342762A, “Basic ethers and pharmaceutical compositions containing the same” (Egyt Gyogyszervegyeszeti Gyar, priority 1979, dated 1982)

Experiments:
[1] = acute oral toxicity, graphic method of Litchfield-Wilcoxon, 4 days observation; details: mouse, in vivo; oral, 20 ml/kg, both sexes 18-24 g, 4 days observation
Method: The analgesic effect of the new compounds according to the invention was determined by the method of Wirth et al. (Wirth, W., Gosswald, R., Horlein. K., Risse, Kl. H., Kreiskott, H.: Arch. Int. Pharmacodyn. 115, 1; (1958)). 0.4 ml of 0.5% acetic acid was administered i.p. to white mice, and the characteristic "writhing" reactions were counted after 5 minutes. […] The results are given in Table I. The toxicity data determined on white mice of both sexes weighing 18-24 g belonging to the strain CFLP are also given. Administration was effected with an oral dose of 20 ml/kg. After treatment the animals were kept under observation for 4 days. The toxicity data (LD50 mg/kg) were determined by the graphic method of Litchfield-Wilcoxon [Litchfield, J.T., Wilcoxon, E. W., J Pharmacol. Exp. Therap. 96, 99; (1949)].

white mice [2] = test: analgesic effect, inhibition of acetic acid "writhing" reactions (Wirth et al.); assay type: in vivo; details: for ED50: Mus musculus, po, read-out: Analgesic effect ED50; for Analgesic effect Therap.index: therapeutic index
Method: The analgesic effect of the new compounds according to the invention was determined by the method of Wirth et al. (Wirth, W., Gosswald, R., Horlein. K., Risse, Kl. H., Kreiskott, H.: Arch. Int. Pharmacodyn. 115, 1; (1958)). 0.4 ml of 0.5% acetic acid was administered i.p. to white mice, and the characteristic "writhing" reactions were counted after 5 minutes. The compounds to be tested had been orally administered an hour before the administration of the acetic acid. The activity is expressed as a percentage of the inhibition referred to the data observed on the control group. The results are given in Table I. The toxicity data determined on white mice of both sexes weighing 18-24 g belonging to the strain CFLP are also given. Administration was effected with an oral dose of 20 ml/kg. After treatment the animals were kept under observation for 4 days. The toxicity data (LD50 mg/kg) were determined by the graphic method of Litchfield-Wilcoxon [Litchfield, J.T., Wilcoxon, E. W., J Pharmacol. Exp. Therap. 96, 99; (1949)].

white mice [3] = test: inhibition of maximal electroshock (MES) (Swinyard et al.); assay type: in vivo; details: for ED50: Mus musculus, oral, 1 hour before electroshock 50 Hz, 45 mA, 0.4 sec, total inhibition of tonic extensor convulsion; for Inhibition of MES Th. I.: therapeutic index
Method: (§1) The antiepileptic effect was investigated on white mice, after oral administration. The inhibition of maximal electroshock (MES) was determined by the method of Swinyard et al. [Swinyard et al. J. Pharmacol. Exp. Ther. 106, 319-330 (1952)]. White mice weighing 20-25 g were subjected to electric shock through corneal electrodes (Parameters: 50 Hz, 45 mA, 0.4 sec.). The total inhibition of the tonic extensor convulsion was considered as criterion of the anti-convulsive effect. The test-substance had been orally administered one hour before the electroshock. The inhibition of pentetrazole convulsion was determined on white mice by the modified method of Banziger and Hane [Banziger, R., Hane, L.D. Arch. Int. Pharmacodyn. 167, 245-249; (1967)]. I." stands for "therapeutic index."

white mice [4] = test: inhibition of pentetrazole convulsion (modified Banziger and Hane); assay type: in vivo; details: for ED50: Mus musculus, oral; for Inhibition of pentetrazole convulsion Th. I.: therapeutic index
Method: as §1

white mice [5] = test: inhibition of nicotine-lethality (Stone); assay type: in vivo; details: for ED50: Mus musculus, oral, 1 hour before 1.4 mg/kg nicotine
Method: The inhibition of nicotine-lethality was determined on white mice by the method of Stone [Stone, C. A., Mecklenburg, K. L., Torchiana, M. L., Arch. Int. Pharmacodyn.

white mice [6] = test: inhibition of motility, Dews apparatus (Borsy); assay type: in vivo; details: for ED50: Mus musculus, oral pretreatment 30 minutes, observation 30 minutes; for Inhibition of motility Th.I.: therapeutic index
Method: (§2) The effect on the inhibition of the oriental activity (inhibition of the motility) was investigated on white mice in a Dews apparatus applied with 8 canals by the method of Borsy [Borsy, J., Csanyi, E., Lazar, I., Arc. Int. Pharmacodyn. 124, 1-2 (1960)]. After an oral pretreatment of 30 minutes the number of light-interruptions due to the movements of groups consisting of 3-3 mice was registered. The observation lasted for 30 minutes. The effect of the compounds exerted on the duration of hexobarbital-narcosis was tested by the method of Kaergaard [Kaergaard, N. C., Magnussen, M. P., Kampmann, E., Frey, H. H., Arc. Int. Pharmacodyn. 2, 170; (1967)]. Groups of animals consisting of 6-6 mice were treated.

mice = test: potentiating of hexobarbital-narcosis (Kaergaard); assay type: in vivo; details: for ED50: Mus musculus, iv, 40 mg/kg hexobarbital i.v., positive: sleeping period at least 2.5 times control; for Potentiating of narcosis Th.I.: therapeutic index
Method: as §2

| SMILES | LD50 at 96 h [1] [mg/kg] | ED50 (white mice [2]) [mg/kg] | Analgesic effect Therap.index (white mice [2]) | ED50 (white mice [3]) [mg/kg] | Inhibition of MES Th. I. (white mice [3]) | ED50 (white mice [4]) [mg/kg] | Inhibition of pentetrazole convulsion Th. I. (white mice [4]) | ED50 (white mice [5]) [mg/kg] | Inhibition of nicotine-lethality Therapeutic index (white mice [5]) | ED50 (white mice [6]) [mg/kg] | Inhibition of motility Th.I. (white mice [6]) | ED50 (mice) [mg/kg] | Potentiating of narcosis Th.I. (mice) |
| --- | --- | --- | --- | --- | --- | --- | --- | --- | --- | --- | --- | --- | --- |
| CCN(CC)CCOC1(Cc2ccccc2)CC2CCC1(C)C2(C)C (single isomer, unassigned) [Example 8, D-(+)-2-benzyl-2-(2'-diethylaminoethoxy)-1,7,7-trimethyl-bicyclo(2,2,1)heptane] | 850 | 45 | 18.9 | 30 | 28.3 | 20 | 42.5 | 11 | 77.3 | 60 | 14.2 | 60 | 14.2 |
| CN(C)CCCOC1(Cc2ccccc2)CC2CCC1(C)C2(C)C (racemic) [Example 1, (±)-2-benzyl-2-(3'-dimethylaminopropoxy)-1,7,7-trimethyl-bicyclo(2,2,1)heptane] | 1600 | 120 | 13.3 | 130 | 12.3 |  |  | 38 | 42.1 | 110 | 14.5 | 90 | 17.7 |
| CN(C)CCCOC1(Cc2ccccc2)CC2CCC1(C)C2(C)C (single isomer, unassigned) [Example 7, D-(-)-2-benzyl-2-(3'-dimethylaminopropoxy)-1,7,7-trimethyl-bicyclo(2,2,1)heptane] | 1200 | 70 | 17.1 | 56 | 21.4 | 66 | 18.2 | 25 | 48.0 | 90 | 13.3 |  |  |
| CC(COC1(Cc2ccccc2)CC2CCC1(C)C2(C)C)CN(C)C (racemic) [Example 2, (±)-2-benzyl-2-(3'-dimethylamino-2'-methylpropoxy)-1,7,7-trimethyl-bicyclo(2,2,1) heptane] | 1700 | 85 | 20.0 | 120 | 14.2 | 88 | 19.3 | 20 | 85,0 |  |  | 15 | 113.3 |
